Reference: patent US20040087561A1, “Treatment of sexual dysfunction” (priority 2000, published 2004)

Experiments:
Sprague Dawley male rats = test: Sexual behaviour of sexually dysfunctional (fluoxetine-treated) male rats; format: in vivo, rat; details: fluoxetine 20 mg/kg i.p. 3 days (vs vehicle+vehicle); day 4 Compound (1) 15 mg/kg or yohimbine 2 mg/kg i.p. 1 h before test (vs fluoxetine+vehicle)
Description: Sprague Dawley male rats (Charles River, UK) were kept, 4 rats per cage, in a reversed lighting regime (12:12 hours, lights off at 5.00 h), with free access to food and water. The rats were pre-selected by being presented with a receptive female at […], i.e. every third day (haying 2 clear days between presentations) until completing 6-7 trials of baseline determination. The animals showing consistently vigorous behaviour (ejaculatory latencies <300 s) were chosen for further experiments. Animals were treated for 3 consecutive days with either vehicle (water) or fluoxetine (20 mg/kg, i.p., in a 2 ml/kg dosing volume). On the fourth day, the animals treated with water received vehicle (veh+veh) and the animals treated with fluoxetine received one of the three following treatments: Compound (1) (15 mg/kg, dissolved in 50% 2-hydroxypropyl-β-cyclodextrin in saline), vehicle (cyclodextrine), or yohimbine (2 mg/kg dissolved in water). All treatments were administered i.p. in a 1 ml/kg volume, 1 h before tests.
For all the sexual behaviour tests, the males were placed in an observation arena (50-60 cm diameter), starting 5 hours into the dark cycle and observed under red illumination. Three to 4 minutes after placing the male in the arena, a receptive female (ovariectomised, bearing a 7 mm Silastic implant of oestradiol benzoate) was introduced to the arena and the following parameters noted: Mount Latency: time (in seconds) taken between introduction of female and first mount. A maximum time of 15 minutes (900 seconds) was allowed, and the test terminated if no mounts were recorded within that time (FIG. 16), Ejaculation Latency: time (in seconds) taken from first intromission to ejaculation. A maximum time of 30 minutes (1800 seconds) was given, and the test terminated if ejaculation was not achieved in that time (FIG. 17), Percentage of males achieving ejaculation within 30 minutes was calculated (FIG. 18).
A one-way ANOVA followed by Dunnett's t test was used to compare the fluoxetine+vehicle group and other groups for mount and ejaculatory latencies. Percentage of animals ejaculating was analysed using a Chi-square test followed by Fisher's test. (*: P<0.05, **: P<0.01, ***: P<0.001; n=15-19).

[1] = tested on: ovariectomised female Sprague Dawley rats; test: Female rat sexual proceptivity (time investigating male vs female stimulus); format: in vivo
Description: Ovariectomised adult female Sprague Dawley rats (180-200 g, from Charles River) were housed in groups of 6 in a reversed lighting system of 12 h light:dark (lights off 7.00-19.00 h). Two weeks after ovariectomy they were used for sexual activity tests. The experiments started at least 5 h into the dark period.
Tests were carried out in a circular arena of 90 cm diameter, surrounded by a 30 cm high wall. Two small cages with wire-mesh front (15×15 cm) are fixed into the wall such that the front of the cage is <> with the wall and the 2 cages are opposite each other. They contained two stimuli animals: an intact sexually experienced male and a receptive female (ovariectomised, primed with 5 μg oestradiol benzoate dissolved in corn oil and injected subcutaneously 48 hours before the test and with 0.5 mg of progesterone four hours before the test). Sexually naive test and control animals were used. Forty eight hours before the tests, both the test and control animals were primed with 5 μg oestradiol benzoate. For animals used as positive controls, progesterone (0.5 mg/0.1 ml) was dissolved in corn oil and administered subcutaneously (s.c.), 4 h before the test. Test and control animals were introduced one at a time for 10 minute periods into the arena. During the 10 min test, the time that the test or positive control animal spent investigating each stimulus animal was noted. The arena was thoroughly cleaned between animals. The position of the male/female stimuli boxes was randomised between animals, in order to avoid place preference. The difference in the percentage of time spent investigating the male minus the female stimuli was calculated, out of the total time spent investigating stimuli animals.
Compound (1) was dissolved in 100% β-cyclodextrin and then diluted with saline to a final solution of 50% 2-hydroxypropyl-β-cyclodextrin. It was administered intraperitoneally (i.p.) at doses of 3 and 10 mg/kg, in a dosing volume of 1 ml/kg, 1 h before tests. Progesterone (0.5 mg/0.1 ml) was dissolved in corn oil and administered subcutaneously (s.c.), 4 h before test, as a positive control.
Ovariectomised adult female Sprague Dawley rats (180-200 g) were housed in groups of 5 in a reversed lighting system of 12 h light:dark (lights off 5.00-17.00 h). They were used for the experiments at least two weeks after ovariectomy. Forty eight hours before tests, the animals were primed with oestradiol benzoate (5 μg/0.1 ml in corn oil, s.c.). On day 1, progesterone (0.5 mg/0.1 ml, in corn oil, s.c.) was administered to one of the groups 4 h before tests, as a positive control. Compound (1) (15 mg/kg, i.p.) was administered in 50% 2-hydroxypropyl-β-cyclodextrin, 1 h before tests. The test lasted 10 minutes and was carried out as described before. The difference in the percentage of time spent investigating the male minus the female stimuli was calculated, out of the total time spent investigating stimuli animals. Animals were submitted to a test on day 1 and on day 15. From day 2 to 14 the Compound (1) group received a daily injection of the compound (15 mg/kg, i.p.), while both the vehicle and the progesterone groups received an injection of vehicle. On day 15 the test took place again, as described for day 1.
Ovariectomised female rats (Sprague Dawley, obtained from Charles River, UK) were stereotaxically implanted (coordinates 0.89 mm behind Bregma, 1.3 mm lateral and 2.5 mm vertical) with stainless steel cannulae (6 mm long, O.D. 0.75 mm), held in place with dental cement. Animals were housed in groups of three and returned to a reversed lighting system of 12 h light:dark (lights off 5.00-17.00 h). Correct placement of the cannulae was assessed post-mortem. Rats were used for tests two weeks after ovariectomy (one week after cannulation). The experiments started at least 5 h into the dark period. […]

COc1ccc(C2(CNC(=O)[C@](C)(Cc3c[nH]c4ccccc34)NC(=O)Nc3ccc([N+](=O)[O-])cc3)CCCCC2)nc1 [Compound (1), (S) 3-(1H-Indol-3-yl)-N-[1-(5-methoxy-pyridin-2-yl)-cyclohexyl-methyl]-2-methyl-2-[3-(4-nitro-phenyl)-ureido]-propionamide]
Ejaculation latency (Sprague Dawley male rats): significantly decreased | Mount latency (Sprague Dawley male rats): significantly decreased | percentage of animals ejaculating (within 30 minutes) (Sprague Dawley male rats): increasing the percentage of animals ejaculating | effect on proceptivity, day 1 ([1]; day 1, Compound (1) 15 mg/kg i.p. 1 h before, progesterone 0.5 mg/0.1 ml s.c. 4 h before, vs vehicle, P<0.01): stimulatory effect on proceptivity | MED, percentage of time spent investigating the male stimulus (proceptivity) ([1]; i.c.v., 3-30 μg/rat, 10 min before test): 10 µg | percentage of time spent investigating the male stimulus (proceptivity) ([1]; i.c.v., dose-dependently 3-30 μg/rat, 10 min before test): increased the percentage of time spent investigating the male stimulus | MED, percentage of time spent investigating the male stimulus (proceptivity) ([1]; i.p., 3 and 10 mg/kg, 1 h before test, 50% 2-hydroxypropyl-β-cyclodextrin): 10 mg/kg | percentage of time spent investigating the male stimulus (proceptivity) ([1]; i.p., dose-dependently 3 mg/kg-10 mg/kg, 1 h before test, vs vehicle): increased the percentage of time spent investigating the male stimulus | body weight or general behaviour ([1]; repeated administration 15 mg/kg i.p. daily for 15 days): no changes in body weight or general behaviour
